Measurements reported in BigSolDB 2.1.

O=c1cc(-c2ccc(O)cc2)oc2cc(O)cc(O)c12
solubility (mole fraction)
Settings | 298.2 K | 303.2 K | 308.2 K | 313.2 K | 318.2 K
in DMSO | 0.376 | 0.384 | 0.395 | 0.407 | 0.418
in ethanol | 0.00025 | 0.000314 | 0.000358 | 0.000426 | 0.000486
in ethyl acetate | 0.000241 | 0.000284 | 0.000326 | 0.000394 | 0.000446
in ethylene glycol | 0.00522 | 0.00573 | 0.00644 | 0.00732 | 0.00822
in isopropanol | 0.00038 | 0.000427 | 0.000485 | 0.000551 | 0.000629
in methanol | 0.000142 | 0.000172 | 0.000207 | 0.000249 | 0.000296
in n-butanol | 0.000562 | 0.00063 | 0.000713 | 0.000808 | 0.000918
in propylene glycol | 0.0101 | 0.0112 | 0.0124 | 0.0137 | 0.015
in sec-butanol | 0.000534 | 0.000603 | 0.000685 | 0.000781 | 0.00089
in transcutol | 0.334 | 0.345 | 0.357 | 0.371 | 0.383
in water | 1.04e-06 | 1.33e-06 | 1.73e-06 | 2.27e-06 | 3.08e-06

Settings | solubility (mole fraction)
in PEG-400, 298.2 K | 0.397
in PEG-400, 303.2 K | 0.405
in PEG-400, 308.2 K | 0.413
in PEG-400, 313.2 K | 0.42
in PEG-400, 318.2 K | 0.427
